Reference: ChEMBL document CHEMBL5325509, “Pyrrolidinedione-thiazolidinone hybrid molecules with potent cytotoxic effect in squamous cell carcinoma SCC-15 cells” (Bioorg Med Chem, 2023)
The source made the active and inactive calls. The rule behind the calls is not given here.

Experiments:
[1] = Cytotoxicity against mouse BALB/3T3 cells assessed reduction in cellular metabolic activity incubated for 24 to 72 hrs by MTT assay; type: toxicity, cell-based
[2] = test system: Colon carcinoma cell; assay: Cytotoxicity against human Colon carcinoma cell assessed as inhibition of cell growth measured at 72 hrs; type: functional, cell-based
[3] = Downregulation of NRFL2 mRNA expression in human SCC-15 cells at 1 uM measured after 24 hrs by RT-PCR analysis (reference value: 18.36 %); type: functional
[4] = test system: SCC-15; assay: Cytotoxicity against human SCC-15 cells assessed as decrease in cellular metabolic activity incubated for 24 hrs by resazurin reduction assay; type: functional, cell-based; settings: SCC-15, 24 h
[5] = test system: SCC-15; assay: Cytotoxicity against human SCC-15 cells assessed as decrease in cellular metabolic activity at 100 uM incubated for 48 hrs by resazurin reduction assay relative to control; type: functional; design: scale not given: the % may be the effect or the level left
[6] = test system: SCC-15; assay: Cytotoxicity against human SCC-15 cells assessed as decrease in cellular metabolic activity incubated for 48 hrs by resazurin reduction assay; type: functional, cell-based; settings: SCC-15, 48 h
[7] = test system: SCC-15; assay: Cytotoxicity against human SCC-15 cells assessed as LDH release at 50 uM incubated for 24 hrs relative to control; type: functional
[8] = Upregulation of Ki67 expression in human SCC-15 cells at 1 uM incubated for 48 hrs Western blot analysis relative to control; type: functional
[9] = test system: SCC-15; assay: Cytotoxicity against human SCC-15 cells assessed as LDH release incubated for 48 hrs; type: functional, cell-based; settings: SCC-15, 48 h
[10] = test system: Leukemic tumor cell line; assay: Cytotoxicity against human Leukemic tumor cell line assessed as inhibition of cell growth measured at 72 hrs; type: functional, cell-based
[11] = Downregulation of AHR mRNA expression in human SCC-15 cells at 1 uM measured after 24 hrs by RT-PCR analysis (reference value: 17.30 %); type: functional
[12] = Downregulation of PPARgamma mRNA expression in human SCC-15 cells at 1 uM measured after 24 hrs by RT-PCR analysis (reference value: 79.68 %); type: functional
[13] = Upregulation of AHR mRNA expression in PPARgamma knockdown human SCC-15 cells at 1 uM measured after 24 hrs by RT-PCR analysis; type: functional
[14] = Cytotoxicity against human HaCaT cells assessed reduction in cellular metabolic activity incubated for 72 hrs by MTT assay; type: toxicity, cell-based
[15] = test system: SCC-15; assay: Cytotoxicity against human SCC-15 cells assessed as LDH release at 100 uM incubated for 24 hrs relative to control; type: functional
[16] = test system: Glioblastoma cell line; assay: Cytotoxicity against human Glioblastoma cell line assessed as inhibition of cell growth measured at 72 hrs; type: functional, cell-based
[17] = Upregulation of PPARgamma expression in human SCC-15 cells at 1 uM incubated for 48 hrs Western blot analysis relative to control; type: functional
[18] = Cytotoxicity against human HaCaT cells assessed reduction in cellular metabolic activity incubated for 24 to 72 hrs by MTT assay; type: toxicity, cell-based
[19] = test system: SCC-15; assay: Cytotoxicity against human SCC-15 cells assessed as decrease in cellular metabolic activity at 10 uM incubated for 24 hrs by resazurin reduction assay relative to control; type: functional; design: scale not given: the % may be the effect or the level left
[20] = Downregulation of PCNA expression in PPARgamma-silenced human SCC-15 cells at 1 uM incubated for 48 hrs Western blot analysis relative to control; type: functional
[21] = test system: SCC-15; assay: Cytotoxicity against human SCC-15 cells assessed as LDH release at 50 uM incubated for 48 hrs relative to control; type: functional
[22] = test system: SCC-15; assay: Cytotoxicity against human SCC-15 cells assessed as decrease in cellular metabolic activity at 50 uM incubated for 48 hrs by resazurin reduction assay relative to control; type: functional; design: scale not given: the % may be the effect or the level left
[23] = Upregulation of AHR mRNA expression in PPARgamma-silenced human SCC-15 cells at 1 uM measured after 24 hrs by RT-PCR analysis; type: functional
[24] = test system: SCC-15; assay: Cytotoxicity against human SCC-15 cells assessed as LDH release incubated for 24 hrs; type: functional, cell-based; settings: SCC-15, 24 h
[25] = Upregulation of AHR expression in PPARgamma-silenced human SCC-15 cells at 1 uM incubated for 48 hrs Western blot analysis relative to control; type: functional
[26] = test system: Breast carcinoma cell; assay: Cytotoxicity against human Breast carcinoma cell assessed as inhibition of cell growth measured at 72 hrs; type: functional, cell-based
[27] = test system: SCC-15; assay: Cytotoxicity against human SCC-15 cells assessed as decrease in cellular metabolic activity at 10 uM incubated for 48 hrs by resazurin reduction assay relative to control; type: functional; design: scale not given: the % may be the effect or the level left
[28] = test system: SCC-15; assay: Cytotoxicity against human SCC-15 cells assessed as LDH release at 100 uM incubated for 48 hrs relative to control; type: functional
[29] = Upregulation of Caspase-3 activity in human SCC-15 cells at 100 uM measured after 24 hrs in presence of Ac-DEVD-AMC by fluorescence microplate reader analysis; type: functional
[30] = test system: SCC-15; assay: Cytotoxicity against human SCC-15 cells assessed as decrease in cellular metabolic activity at 100 uM incubated for 24 hrs by resazurin reduction assay relative to control; type: functional; design: scale not given: the % may be the effect or the level left
[31] = Cytotoxicity against human Cervical carcinoma cell assessed as inhibition of cell growth measured at 72 hrs; type: functional, cell-based
[32] = Downregulation of PPARgamma mRNA expression in PPARgamma-silenced human SCC-15 cells at 1 uM measured after 24 hrs by RT-PCR analysis; type: functional
[33] = Upregulation of PPARgamma expression in PPARgamma-silenced human SCC-15 cells at 1 uM incubated for 48 hrs Western blot analysis relative to control; type: functional
[34] = test system: Lung cancer cell line; assay: Cytotoxicity against human Lung cancer cell line assessed as inhibition of cell growth measured at 72 hrs; type: functional, cell-based
[35] = test system: HaCaT; assay: Cytotoxicity against human HaCaT cells assessed reduction in cellular metabolic activity at 0.1 to 100 uM incubated for 24 to 72 hrs by MTT assay; type: toxicity, cell-based; settings: dose lower 0.1 µM, time lower 24 hrs, dose upper 100 µM, time upper 72 hrs
[36] = test system: SCC-15; assay: Induction of intracellular ROS generation in human SCC-15 cells at 0.001 to 10 uM incubated for 24 to 48 hrs by DCFH-DA staining based immunofluorescence analysis; type: functional, cell-based; settings: dose 0.001-10 µM, time 24-48 hrs
[37] = test system: SCC-15; assay: Induction of intracellular ROS generation in human SCC-15 cells incubated for 24 to 48 hrs by DCFH-DA staining based immunofluorescence analysis; type: functional, cell-based; settings: dose 0.001-100 µM, time 24-48 hrs
[38] = Upregulation of Caspase-3 activity in human SCC-15 cells at 100 uM measured after 48 hrs in presence of Ac-DEVD-AMC by fluorescence microplate reader analysis; type: functional
[39] = test system: SCC-15; assay: Cytotoxicity against human SCC-15 cells assessed as LDH release at 10 uM incubated for 24 hrs relative to control; type: functional
[40] = test system: BALB/3T3; assay: Cytotoxicity against mouse BALB/3T3 cells assessed reduction in cellular metabolic activity at 0.1 to 100 uM incubated for 24 to 72 hrs by MTT assay; type: toxicity, cell-based; settings: balb/3t3, 100 µM, dose lower 0.1 µM, time lower 24 hrs, dose upper 100 µM, time upper 72 hrs
[41] = Upregulation of NRFL2 mRNA expression in PPARgamma knockdown human SCC-15 cells at 1 uM measured after 24 hrs by RT-PCR analysis; type: functional
[42] = Upregulation of Ki67 expression in PPARgamma-silenced human SCC-15 cells at 1 uM incubated for 48 hrs Western blot analysis relative to siRNA control; type: functional
[43] = test system: SCC-15; assay: Induction of intracellular ROS generation in human SCC-15 cells at 50 to 100 uM incubated for 24 hrs by DCFH-DA staining based immunofluorescence analysis; type: functional; settings: dose 50-100 µM
[44] = test system: SCC-15; assay: Induction of intracellular ROS generation in human SCC-15 cells at 50 to 100 uM incubated for 48 hrs by DCFH-DA staining based immunofluorescence analysis; type: functional; settings: dose 50-100 µM
[45] = test system: SCC-15; assay: Induction of intracellular ROS generation in human SCC-15 cells at 0.001 to 100 uM by DCFH-DA staining based immunofluorescence analysis; type: functional, cell-based; settings: dose 0.001-100 µM, time 24-48 hrs, TDE = time-dependent effect
[46] = Upregulation of PCNA expression in PPARgamma-silenced human SCC-15 cells at 1 uM incubated for 48 hrs Western blot analysis relative to siRNA control; type: functional
[47] = test system: SCC-15; assay: Cytotoxicity against human SCC-15 cells assessed as decrease in cellular metabolic activity at 50 uM incubated for 24 hrs by resazurin reduction assay relative to control; type: functional; design: scale not given: the % may be the effect or the level left
[48] = Downregulation of AHR expression in PPARgamma-silenced human SCC-15 cells at 1 uM incubated for 48 hrs Western blot analysis relative to SiRNA control; type: functional

O=C1CC(N2C(=O)/C(=C/C(Cl)=C/c3ccc([N+](=O)[O-])cc3)SC2=S)C(=O)N1c1ccc(O)cc1 (stereo not drawn)
IC50 [1]: > 100 µM | IC50 [2]: 1 µM | Activity [3]: 13.77% | IC50 [4]: 17.7 µM | Activity [5]: 83.18% | IC50 [6]: 6.72 µM | Activity [7]: 106.2% | Activity [8]: 28.61% | EC50 [9]: 32.8 µM | IC50 [10]: 1 µM | Activity [11]: 34.9% | Activity [12]: 21.32% | Activity [13]: 15.99% | IC50 at 72 h [14]: 73.6 µM | Activity [15]: 115.3% | IC50 [16]: 1 µM | Activity [17]: 18.58% | IC50 [18]: > 100 µM | Activity [19]: 43.58% | Activity [20]: 66.68% | Activity [21]: 150.7% | Activity [22]: 82.23% | Activity [23]: 33.59% | EC50 [24]: 24.9 µM | Activity [25]: 4.74% | IC50 [26]: 1 µM | Activity [27]: 69.88% | Activity [28]: 90.92% | Activity [29]: 74.97% | Activity [30]: 79.14% | IC50 [31]: 1 µM | Activity [32]: 60.85% | Activity [33]: 19.96% | IC50 [34]: 1 µM | Activity [35]: Non-Toxic | Activity [36]: inactive | Activity [37]: Dose-Dependent Effect | Activity [38]: 62.85% | Activity [39]: 16.8% | Activity [40]: Non-Toxic | Activity [41]: 5.73% | Activity [42]: 41.15% | Activity [43]: 11.01% | Activity [44]: 23.37% | Activity [45]: Tde | Activity [46]: 23.6% | Activity [47]: 77% | Activity [48]: 32.59%
